Activity calls are given as the source filed them. Peptide text beside a SMILES is read from it. * marks the point of attachment. Cbz = O=C(OCc1ccccc1)*
Columns and labels:
[1] = cAMP pathway inhibition in counterscreen cell line – TR-FRET cAMP detection, counter-screen for MC4R biased antagonist project, dose response (AID 602305); assay type: functional, cell-based;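 also: U2OS cells stimulated with forskolin near its EC80 as the cAMP inducer; potency is for inhibition of forskolin-stimulated cAMP signaling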
[2] = target: Melanocortin receptor 4 (Homo sapiens, UniProt P32245); test: inhibitors of MC4R cAMP signaling – cell-based, TR-FRET, biased antagonists, dose response (AID 602298); assay type: functional;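 also: antagonist potency against agonist-stimulated cAMP production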
Melanocortin receptor 4, sequence (P32245 whole entry): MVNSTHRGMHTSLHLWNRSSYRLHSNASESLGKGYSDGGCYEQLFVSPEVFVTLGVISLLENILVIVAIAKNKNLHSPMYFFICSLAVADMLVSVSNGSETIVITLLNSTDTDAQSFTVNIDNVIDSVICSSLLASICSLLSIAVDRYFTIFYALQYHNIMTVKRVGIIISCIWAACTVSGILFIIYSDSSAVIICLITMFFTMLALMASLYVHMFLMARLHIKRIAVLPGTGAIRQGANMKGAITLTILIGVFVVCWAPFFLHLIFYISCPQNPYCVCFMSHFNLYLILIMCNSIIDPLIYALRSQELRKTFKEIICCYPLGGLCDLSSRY

[3] = target: 26S proteasome non-ATPase regulatory subunit 14 (Homo sapiens, UniProt O00487); test: inhibition of proteasome subunit RPN11 – biochemical, fluorescence polarization, uHTS hits, confirmation (AID 602368); assay type: functional
26S proteasome non-ATPase regulatory subunit 14, sequence (O00487 whole entry): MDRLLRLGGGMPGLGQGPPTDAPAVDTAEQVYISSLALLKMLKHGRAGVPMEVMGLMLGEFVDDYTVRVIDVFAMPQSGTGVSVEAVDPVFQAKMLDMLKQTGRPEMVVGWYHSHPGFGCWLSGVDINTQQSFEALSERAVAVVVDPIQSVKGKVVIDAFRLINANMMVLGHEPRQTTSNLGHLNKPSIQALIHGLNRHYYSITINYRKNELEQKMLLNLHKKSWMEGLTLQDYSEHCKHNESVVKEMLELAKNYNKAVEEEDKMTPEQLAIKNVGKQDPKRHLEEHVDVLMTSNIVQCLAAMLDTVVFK

[4] = tested on: H4; test: Luminescence Cell-Based Dose Response HTS to Identify Activators of 5'UTR Stem-Loop Driven Prion Protein mRNA Translation in H4 Neuroglioblastoma Cells. [Related pubchem assays: 1829 (Project Summary), 1814 (Primary HTS)]; assay type: functional; details: Homo sapiens
[5] = target: 72 kDa type IV collagenase (Homo sapiens, UniProt P08253); test: Dose Response validation of uHTS RPN11 inhibitor hits using a MMP-2 Fluorescence assay.; assay type: functional
72 kDa type IV collagenase, sequence (P08253 whole entry): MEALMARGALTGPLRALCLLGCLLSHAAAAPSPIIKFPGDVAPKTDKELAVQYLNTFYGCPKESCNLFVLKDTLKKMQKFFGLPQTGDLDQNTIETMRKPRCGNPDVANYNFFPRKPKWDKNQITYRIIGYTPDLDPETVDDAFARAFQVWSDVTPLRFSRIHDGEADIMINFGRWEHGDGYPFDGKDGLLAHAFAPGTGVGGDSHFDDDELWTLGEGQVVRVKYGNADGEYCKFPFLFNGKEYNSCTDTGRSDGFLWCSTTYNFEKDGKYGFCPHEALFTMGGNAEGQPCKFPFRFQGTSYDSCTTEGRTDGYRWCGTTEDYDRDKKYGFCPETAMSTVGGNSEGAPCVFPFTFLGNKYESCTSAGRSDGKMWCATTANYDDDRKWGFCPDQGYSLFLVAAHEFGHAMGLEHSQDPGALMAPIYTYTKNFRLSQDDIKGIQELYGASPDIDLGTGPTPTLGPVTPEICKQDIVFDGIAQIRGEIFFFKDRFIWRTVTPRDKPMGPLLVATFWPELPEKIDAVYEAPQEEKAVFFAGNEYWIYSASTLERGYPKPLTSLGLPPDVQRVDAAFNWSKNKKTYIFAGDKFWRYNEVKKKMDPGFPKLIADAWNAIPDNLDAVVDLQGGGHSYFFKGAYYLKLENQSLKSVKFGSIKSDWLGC

[6] = target: Prothrombin (Bos taurus, UniProt P00735); test: thrombin protease inhibitors – biochemical, fluorescence polarization, uHTS hits, dose response (AID 602369); assay type: functional
[7] = Luminescence Cell-Based Dose Confirmation HTS to Identify Activators of 5'UTR Stem-Loop Driven Alpha-Synuclein mRNA Translation in H4 Neuroglioblastoma Cells. [Related pubchem assays: 1829 (Project Summary), 1814 (Primary HTS)]; assay type: functional
[8] = target: T1, Rac GTPase-activating protein 1 (Homo sapiens, UniProt Q9H0H5); test: blockers of MgcRacGAP-driven Rac1 GTP hydrolysis – biochemical, ADP Hunter fluorescence, primary and confirmatory, confirmation (AID 624330); assay type: functional
T1 sequence (Q9H0H5 whole entry): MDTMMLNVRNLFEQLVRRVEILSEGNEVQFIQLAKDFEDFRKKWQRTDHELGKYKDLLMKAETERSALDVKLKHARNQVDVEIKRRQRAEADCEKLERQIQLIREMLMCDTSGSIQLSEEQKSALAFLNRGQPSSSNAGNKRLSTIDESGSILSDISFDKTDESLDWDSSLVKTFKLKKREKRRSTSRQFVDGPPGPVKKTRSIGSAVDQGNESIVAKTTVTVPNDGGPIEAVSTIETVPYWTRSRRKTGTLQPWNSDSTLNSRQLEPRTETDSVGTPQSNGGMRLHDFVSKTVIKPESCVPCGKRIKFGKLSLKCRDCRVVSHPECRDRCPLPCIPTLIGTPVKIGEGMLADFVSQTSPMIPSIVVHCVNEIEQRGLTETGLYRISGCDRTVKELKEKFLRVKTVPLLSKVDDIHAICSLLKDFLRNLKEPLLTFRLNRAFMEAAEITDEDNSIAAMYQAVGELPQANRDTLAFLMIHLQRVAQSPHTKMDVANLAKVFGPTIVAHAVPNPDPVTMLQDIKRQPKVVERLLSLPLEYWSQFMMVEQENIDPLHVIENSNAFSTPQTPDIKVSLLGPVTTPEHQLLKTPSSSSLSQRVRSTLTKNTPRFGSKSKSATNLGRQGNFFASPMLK

[9] = Luminescence Cell-Based Dose Response HTS to Identify Activators of Luciferase Translation or Activity in H4 […] Cells. [Related pubchem assays: 1829 (Project Summary), 1814 (Primary HTS)]; assay type: functional
[10] = ADP-Glo luciferase signal interference – biochemical, luminescence, cherry-picked samples, set 2, artefact control for CDK5 inhibitor project, dose response (AID 504546); assay type: functional, cell-based
[11] = tested on: BJ; test: BJ-TERT-LT-ST fibroblast viability loss – cell-based, RAS-independent, luminescence, dose response (AID 1935); assay type: functional; details: Homo sapiens;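 also: BJ fibroblasts immortalized with TERT plus LT and ST oncogenes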
[12] = target: Cyclin-dependent kinase 5/CDK5 activator 1 (Homo sapiens, UniProt Q00535); test: blockade of human CDK5 activity – biochemical, cherry-picked samples, set 2, dose response (AID 504545)
[13] = target: Luciferin 4-monooxygenase (Photinus pyralis, UniProt P08659); test: inhibition of purified Photinus pyralis luciferase – biochemical, luminescence, dose response (AID 1891)
Luciferin 4-monooxygenase, sequence (P08659 whole entry): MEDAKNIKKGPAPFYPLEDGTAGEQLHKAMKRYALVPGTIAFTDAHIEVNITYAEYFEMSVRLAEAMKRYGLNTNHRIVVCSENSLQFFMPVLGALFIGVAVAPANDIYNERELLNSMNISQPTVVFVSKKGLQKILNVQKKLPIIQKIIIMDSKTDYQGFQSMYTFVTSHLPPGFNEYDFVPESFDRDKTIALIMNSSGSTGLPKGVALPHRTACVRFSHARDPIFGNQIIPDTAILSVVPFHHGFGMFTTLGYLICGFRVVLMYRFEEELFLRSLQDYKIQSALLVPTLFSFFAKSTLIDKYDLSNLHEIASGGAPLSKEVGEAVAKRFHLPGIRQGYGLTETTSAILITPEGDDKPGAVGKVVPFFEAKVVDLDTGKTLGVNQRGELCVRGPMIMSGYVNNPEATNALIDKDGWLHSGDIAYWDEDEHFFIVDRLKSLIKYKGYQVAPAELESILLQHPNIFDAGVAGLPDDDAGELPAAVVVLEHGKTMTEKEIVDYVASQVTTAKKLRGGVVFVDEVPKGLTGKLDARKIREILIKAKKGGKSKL

[14] = tested on: BJ; test: growth inhibition of engineered Ras-driven BJ cells – cell-based, alamar blue fluorescence, cherrypicked samples, dose response (AID 2631); assay type: functional; details: Homo sapiens;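 also: confirmatory dose-response assay in RAS-dependent BJ fibroblasts engineered with TERT, LT and ST, with cytotoxicity read by fluorescence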
[15] = DRD fibroblast viability loss – cell-based, non-viral oncogenic, luminescence, dose response (AID 1934); assay type: functional; details: Homo sapiens
[16] = Luminescence Cell-Based Dose Confirmation HTS to Identify Inhibitors of Platelet Dense Granule Release. [Related pubchem assays: 1663 (Primary HTS), 1678 (Summary of Project)]; assay type: functional
[17] = tested on: BJ; test: cells; assay type: functional, cell-based; details: Homo sapiens
[18] = target: Dual specificity tyrosine-phosphorylation-regulated kinase 1A (Rattus norvegicus, UniProt Q63470); assay type: biochemical, Homo sapiens
[19] = tested on: BJ; test: BJ-TERT fibroblast viability loss – cell-based, RAS-independent, luminescence, dose response (AID 1933); assay type: functional; details: Homo sapiens
[20] = bead-based luminescence quenchers, dual-tagged ARNT – biochemical, AlphaScreen, cherry-pick, artefact control for ARNT-TACC3 interaction inhibitor project, dose response (AID 651705); assay type: functional;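 also: AlphaScreen bead proximity signal that flags compounds interfering with the detection technology; potency reflects signal decrease which marks the compound as an assay artifact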
[21] = target: Benomyl/methotrexate resistance protein (Candida albicans, UniProt P28873); test: Candida albicans Mdr1 pump inhibition curves – singleplex, Cherry Pick1 hits, dose response (AID 588608); assay type: functional
[22] = NIH-3T3 fibroblast cytotoxicity, dose response, cytotoxicity control, cell-based, fluorescence, Alamar Blue, secondary assay (AID 2327); assay type: functional;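 also: NIH-3T3 mouse fibroblasts cultured with fluconazole at 8 µg/mL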
[23] = fluconazole-exposed Candida albicans growth modulators – fluorescence, retest, confirmation (AID 2467); assay type: functional, cell-based
[24] = target: ATP-dependent molecular chaperone HSP82 (Candida albicans (strain WO-1) (Yeast), UniProt C4YTQ8); test: steroid-induced GRE reporter decrease in yeast – S. cerevisiae, luminescence, Hsp90 inhibitor project, dose response (AID 2400); assay type: functional, cell-based;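 also: beta-galactosidase luminescence from glucocorticoid response element reporter as proxy for Hsp90 function; inhibitor potency where signal loss means Hsp90 inhibition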
[25] = target: T2, Serine/threonine-protein phosphatase (Candida dubliniensis (strain CD36 / CBS 7987 / NCPF 3949 / NRRLY-17841) (Yeast), UniProt B9W6M3); test: blockers of CaCl2-induced CDRE-lacZ signaling – S. cerevisiae, luminescence, secondary, dose response (AID 2388); assay type: functional, cell-based;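 also: yeast reporter cells carrying a calcineurin-responsive lacZ construct stimulated with calcium chloride; luminescent beta-galactosidase reporter signal in whole cells rather than isolated phosphatase activity; potency for inhibition where a drop in reporter signal means calcineurin blockade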
T2 sequence (B9W6M3 whole entry): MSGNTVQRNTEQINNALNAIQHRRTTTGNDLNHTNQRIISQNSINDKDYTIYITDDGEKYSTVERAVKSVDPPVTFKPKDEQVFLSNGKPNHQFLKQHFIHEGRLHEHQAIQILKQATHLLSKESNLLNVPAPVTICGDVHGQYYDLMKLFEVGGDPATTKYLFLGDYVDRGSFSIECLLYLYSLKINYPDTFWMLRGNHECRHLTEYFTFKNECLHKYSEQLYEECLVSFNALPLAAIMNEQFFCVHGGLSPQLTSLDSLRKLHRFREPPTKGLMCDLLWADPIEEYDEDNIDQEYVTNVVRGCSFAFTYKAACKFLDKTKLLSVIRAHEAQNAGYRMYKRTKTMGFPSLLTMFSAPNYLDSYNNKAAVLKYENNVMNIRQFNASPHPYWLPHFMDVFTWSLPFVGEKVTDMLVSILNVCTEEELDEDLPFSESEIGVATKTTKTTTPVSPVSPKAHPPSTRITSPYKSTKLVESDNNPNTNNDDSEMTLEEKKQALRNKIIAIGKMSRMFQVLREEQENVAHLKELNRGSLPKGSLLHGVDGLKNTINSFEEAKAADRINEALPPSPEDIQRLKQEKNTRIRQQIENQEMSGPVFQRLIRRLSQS

[26] = target: T3, Interleukin-8 (Homo sapiens, UniProt P10145); test: Dose Response confirmation of uHTS small molecule hits for cystic fibrosis induced NFkb Inhibitors in a TNFa-induced IL8 counterscreen.; assay type: functional; details: read-out: IC50_Mean
T3 sequence (P10145 whole entry): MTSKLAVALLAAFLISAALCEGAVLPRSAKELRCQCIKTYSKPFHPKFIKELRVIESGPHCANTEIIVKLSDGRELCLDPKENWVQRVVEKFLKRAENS

[27] = target: T3, Interleukin-8; test: Dose Response confirmation of uHTS small molecule hits for cystic fibrosis induced NFkb Inhibitors in a PAF-induced IL8 counterscreen.; assay type: functional; details: read-out: IC50_Mean
[28] = target: T4, Fatty acid synthase (Homo sapiens, UniProt P49327); test: inhibition of human FAS-TE enzyme activity – biochemical, kinetic fluorescence intensity, dose response (AID 624326); assay type: functional;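 also: rate of fluorescence rise from hydrolysis of a fluorogenic O-methyl fluorescein ester substrate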
T4 sequence (P49327 whole entry): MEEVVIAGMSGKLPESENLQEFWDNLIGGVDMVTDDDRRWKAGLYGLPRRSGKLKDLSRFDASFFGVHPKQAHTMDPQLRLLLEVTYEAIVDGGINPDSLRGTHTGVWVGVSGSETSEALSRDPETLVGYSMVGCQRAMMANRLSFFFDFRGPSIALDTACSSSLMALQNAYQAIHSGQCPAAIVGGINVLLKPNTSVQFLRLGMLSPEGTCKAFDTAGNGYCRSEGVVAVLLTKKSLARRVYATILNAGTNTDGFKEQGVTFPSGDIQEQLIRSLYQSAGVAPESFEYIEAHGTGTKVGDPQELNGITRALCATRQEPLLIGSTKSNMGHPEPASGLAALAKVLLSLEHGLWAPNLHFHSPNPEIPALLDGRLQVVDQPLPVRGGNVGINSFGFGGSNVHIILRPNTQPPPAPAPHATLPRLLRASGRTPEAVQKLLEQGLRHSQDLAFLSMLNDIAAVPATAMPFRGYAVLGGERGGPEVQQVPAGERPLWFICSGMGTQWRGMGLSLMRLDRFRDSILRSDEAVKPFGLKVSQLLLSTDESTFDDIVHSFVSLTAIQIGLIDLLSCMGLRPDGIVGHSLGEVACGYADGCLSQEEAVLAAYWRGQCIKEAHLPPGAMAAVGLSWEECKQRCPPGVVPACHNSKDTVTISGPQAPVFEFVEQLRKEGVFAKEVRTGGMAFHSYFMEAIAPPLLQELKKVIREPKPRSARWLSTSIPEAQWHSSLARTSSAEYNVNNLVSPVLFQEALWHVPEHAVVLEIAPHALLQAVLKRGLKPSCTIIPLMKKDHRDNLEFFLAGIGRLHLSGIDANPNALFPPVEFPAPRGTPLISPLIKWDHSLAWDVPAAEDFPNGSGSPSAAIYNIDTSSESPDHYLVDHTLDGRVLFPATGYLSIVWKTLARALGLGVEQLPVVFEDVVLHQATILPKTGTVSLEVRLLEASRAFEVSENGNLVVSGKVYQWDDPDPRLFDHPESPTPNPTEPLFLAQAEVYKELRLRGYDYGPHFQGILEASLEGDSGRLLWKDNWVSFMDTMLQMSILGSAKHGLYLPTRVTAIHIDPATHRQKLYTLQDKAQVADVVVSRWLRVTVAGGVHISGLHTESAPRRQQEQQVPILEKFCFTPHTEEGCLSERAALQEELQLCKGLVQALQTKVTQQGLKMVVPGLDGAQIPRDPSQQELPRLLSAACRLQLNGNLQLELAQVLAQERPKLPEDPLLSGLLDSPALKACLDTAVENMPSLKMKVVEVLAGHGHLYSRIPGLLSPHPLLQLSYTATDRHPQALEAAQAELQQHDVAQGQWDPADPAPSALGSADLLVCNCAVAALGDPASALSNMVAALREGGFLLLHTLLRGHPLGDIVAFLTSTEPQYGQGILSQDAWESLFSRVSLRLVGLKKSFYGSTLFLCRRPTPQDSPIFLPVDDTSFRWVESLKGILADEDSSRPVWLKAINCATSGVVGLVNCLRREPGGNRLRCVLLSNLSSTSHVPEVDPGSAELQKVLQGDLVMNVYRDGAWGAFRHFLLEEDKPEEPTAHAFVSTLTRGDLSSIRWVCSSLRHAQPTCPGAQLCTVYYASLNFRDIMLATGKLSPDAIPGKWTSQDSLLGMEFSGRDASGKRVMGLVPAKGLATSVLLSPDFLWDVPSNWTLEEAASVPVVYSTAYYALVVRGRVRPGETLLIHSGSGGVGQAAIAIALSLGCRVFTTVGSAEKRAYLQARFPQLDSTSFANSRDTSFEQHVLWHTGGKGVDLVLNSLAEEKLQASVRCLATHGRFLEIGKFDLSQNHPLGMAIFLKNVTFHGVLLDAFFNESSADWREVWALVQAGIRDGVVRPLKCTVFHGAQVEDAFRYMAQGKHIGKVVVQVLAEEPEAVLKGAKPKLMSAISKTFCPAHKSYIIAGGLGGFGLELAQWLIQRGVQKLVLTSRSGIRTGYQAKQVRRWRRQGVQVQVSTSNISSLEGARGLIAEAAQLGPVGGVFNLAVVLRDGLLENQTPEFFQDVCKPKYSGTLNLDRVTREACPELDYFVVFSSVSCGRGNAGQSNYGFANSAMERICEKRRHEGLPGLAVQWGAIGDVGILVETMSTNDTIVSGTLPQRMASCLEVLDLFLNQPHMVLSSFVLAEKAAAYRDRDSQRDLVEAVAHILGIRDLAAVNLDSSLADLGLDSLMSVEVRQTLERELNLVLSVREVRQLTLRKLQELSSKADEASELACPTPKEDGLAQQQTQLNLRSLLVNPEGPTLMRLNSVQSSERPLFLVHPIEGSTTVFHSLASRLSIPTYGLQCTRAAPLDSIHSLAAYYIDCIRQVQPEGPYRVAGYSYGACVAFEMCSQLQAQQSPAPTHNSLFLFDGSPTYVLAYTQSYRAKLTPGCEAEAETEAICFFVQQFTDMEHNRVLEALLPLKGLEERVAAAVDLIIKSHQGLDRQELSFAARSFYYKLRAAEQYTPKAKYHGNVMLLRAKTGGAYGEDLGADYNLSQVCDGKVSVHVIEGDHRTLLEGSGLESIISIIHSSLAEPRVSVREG

[29] = target: T4, Fatty acid synthase; test: inhibition of human FAS-TE enzyme activity – biochemical, endpoint fluorescence intensity, uHTS hits, dose response (AID 624327); assay type: functional;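 also: fluorescence from hydrolysis of an O-methyl fluorescein acyl ester substrate by the enzyme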
[30] = target: DNA dC->dU-editing enzyme APOBEC-3G (Homo sapiens, UniProt Q9HC16); test: inhibition of APOBEC3G ssDNA deamination – biochemical, fluorescence, single-stranded DNA substrate, SAR follow-up (AID 602136); assay type: functional; details: read-out: IC50_Mean
DNA dC->dU-editing enzyme APOBEC-3G, sequence (Q9HC16 whole entry): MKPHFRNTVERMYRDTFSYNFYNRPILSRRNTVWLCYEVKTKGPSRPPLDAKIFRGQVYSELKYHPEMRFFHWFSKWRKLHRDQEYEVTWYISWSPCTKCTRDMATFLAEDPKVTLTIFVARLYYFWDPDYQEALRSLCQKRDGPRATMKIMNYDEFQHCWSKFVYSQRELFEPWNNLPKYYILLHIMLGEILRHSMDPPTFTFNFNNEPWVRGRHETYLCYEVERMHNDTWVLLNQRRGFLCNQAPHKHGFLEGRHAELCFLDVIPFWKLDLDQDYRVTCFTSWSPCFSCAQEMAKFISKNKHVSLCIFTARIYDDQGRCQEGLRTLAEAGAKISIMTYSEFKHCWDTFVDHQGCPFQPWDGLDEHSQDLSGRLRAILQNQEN

[31] = target: DNA dC->dU-editing enzyme APOBEC-3A (Homo sapiens, UniProt P31941); test: SAR analysis of small molecule inhibitors of APOBEC3A DNA Deaminase via a fluorescence-based single-stranded DNA deaminase assay.; assay type: functional; details: read-out: IC50_Mean
DNA dC->dU-editing enzyme APOBEC-3A, sequence (P31941 whole entry): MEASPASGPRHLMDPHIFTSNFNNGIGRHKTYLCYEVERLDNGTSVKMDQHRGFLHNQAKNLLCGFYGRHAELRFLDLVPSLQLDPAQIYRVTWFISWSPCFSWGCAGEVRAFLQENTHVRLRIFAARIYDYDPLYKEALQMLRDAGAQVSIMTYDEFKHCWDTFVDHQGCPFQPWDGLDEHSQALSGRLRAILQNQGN

[32] = viability loss in HeLa cells – cytotoxicity control for MgcRacGAP inhibitor project, dose response (AID 624300); assay type: functional
[33] = Vero cell cytotoxicity, cytotoxicity control for M. tuberculosis inhibitor project, purified and synthesized samples, set 3 (AID 504684); assay type: functional
[34] = A Cell Based Secondary Assay to Explore Cytotoxicity in THP-1 Cells of Compounds that Modulate Mycobacterium tuberculosis in Media Containing Glycerol versus Media without Glycerol (2).; assay type: functional
[35] = target: Aryl hydrocarbon receptor (Homo sapiens, UniProt P35869); details: Potency;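 also: confirmatory quantitative high-throughput screen measuring activation of the AhR signaling pathway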
[36] = cells
[37] = target: Heat shock protein HSP 90-alpha (Homo sapiens, UniProt P07900); assay type: functional, organism-based
[38] = NIH3T3 cell viability loss – ATP luminescence, mouse fibroblasts, counter-screen, dose response (AID 2010); assay type: functional, cell-based;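 also: cells exposed to compound for about 90 hours before reading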
[39] = Trypanosoma cruzi growth suppression in host cells – NIH3T3 host cells, beta-gal luminescence, confirmation (AID 2044); assay type: functional, cell-based;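 also: intracellular parasites grown in NIH/3T3 mouse fibroblasts as host cells; luminescent beta-galactosidase reporter signal from transgenic T. cruzi replicating inside host cells; inhibitors lower the luminescence signal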

O=C(COC(=O)CCN1C(=O)c2cccc([N+](=O)[O-])c2C1=O)NCc1ccccc1
IC50 [1]: > 64.6 µM (inactive)
IC50 [2]: > 64.6 µM (inactive)

Cc1c(N=Nc2ccc(N(C)C)cc2)c(=O)n(-c2ccccc2)n1C
IC50 [3]: 73.1 µM (active)
EC50 [4]: 34.5 µM (active)
IC50 [5]: > 100 µM (inactive)
IC50 [6]: 42.8 µM (active)
EC50 [7]: 11.1 µM (active)
IC50 [8]: 56.9 µM (active)
EC50 [9]: 6.8 µM (active)

O=C(c1ccc2c3n(nc2c1)-c1ccccc1CO3)N1CCOCC1
AC50 [10]: 17.7 µM (active)
EC50 [11]: 17 µM (active)
AC50 [12]: 12.3 µM (active)
EC50 [13]: 1.55 µM (active)
EC50 [14]: > 133 µM (inactive)
EC50 [15]: 5.29 µM (active)
EC50 [16]: 10.8 µM (active)
EC50 [17]: 3.76 µM (active)
AC50 [18]: 12.6 µM (active)
EC50 [19]: 4.57 µM (inconclusive)

O=C(COc1ccccc1)Nc1nnc(-c2ccccc2)o1
AC50 [20]: 93.8 µM (active)

Cn1cc(C(c2ccccn2)c2cn(C)c3ccccc23)c2ccccc21
EC50 [21]: 7.76 µM (active)
EC50 [22]: 55.6 µM (active)
EC50 [23]: 0.157 µM (active)
EC50 [24]: > 150 µM (inactive)
EC50 [25]: > 180 µM (inactive)

CN1CCC(OC(=O)c2cc3cc(Cl)cc(Cl)c3oc2=O)CC1
IC50 [26]: 8.62 µM (active)
IC50 [27]: 3.45 µM (active)

COc1ccc(NC(=O)Nc2cccc3c2O[C@H](CN(C)C(=O)Nc2ccc(C(F)(F)F)cc2)[C@@H](C)CN([C@H](C)CO)C3=O)cc1
IC50 [1]: > 64.6 µM (inactive)
IC50 [28]: 7.98 µM (active)
IC50 [2]: 23.1 µM (inactive)
IC50 [29]: 11.6 µM (active)

c1cnc2nc(SCc3cn4ccccc4n3)[nH]c2c1
IC50 [30]: > 99 µM (inactive)
IC50 [31]: > 99 µM (inactive)

Cn1c(SCC(=O)c2ccccc2)nnc1-c1sc2ccccc2c1Cl
IC50 [30]: > 99 µM (inactive)
IC50 [31]: > 99 µM (inactive)

CCc1ccc(O)c(/N=C/c2cccc(C)c2O)c1
IC50 [3]: 29.4 µM (active)
CC50 [32]: 100 µM (active)
IC50 [5]: > 100 µM (inactive)
IC50 [6]: 11.8 µM (active)
IC50 [8]: 45.5 µM (active)

CCOC(=O)CNC(=O)[C@H](Cc1ccccc1)NC(=O)OCc1ccccc1 (Cbz-Phe-Gly-OEt)
CC50 [33]: 32.1 µM (active)
CC50 [34]: 58.5 µM (active)

CCCC1COC(Cn2cncn2)(c2ccc(Cl)cc2Cl)O1 (configuration not stated) [PROPICONAZOLE]
AC50 [35]: 70.8 µM (inconclusive)
EC50 [36]: 0.041 µM (active)
AC50 [37]: < 0.195 µM (active)
EC50 [38]: > 60 µM (not active)
EC50 [39]: < 0.1 µM (active)
